Legend:
[1] = test system: db/db mice; test: Food intake amount and body weight, 5 week-continuous oral administration in drinking water, db/db mice; assay type: in vivo, mouse; settings: enantiomer 1.1 mg/dl in drinking water, oral, 5 weeks; for body weight increase / food intake amount: vs control
Procedure: 5 week-old male C57BL/KsJ-db/db mice (db/db mice: body weight 19 to 25 g, Japan SLC, Inc.) were purchased and individually fed in tip cages. For the db/db mice, normal pellet diet (CE-2) was administered under free water intake and free food intake. A body weight and a food intake amount over 24 hours were measured every day from the start of feeding. On day 3 after the start of feeding, blood was taken from an orbit after 6 hour-fasting and a blood glucose level and a blood insulin concentration were measured. The db/db mice were divided into three groups (10 mice per each group) so that a body weight, a 24 hour-food intake amount, a blood glucose level, and a blood insulin concentration were equal, and defined to be a control group, a low concentration baclofen treated group, and a high concentration baclofen treated group. After division into the groups, from day 5 after the start of feeding, (±)-baclofen was dissolved in drinking water and 5 week-continuous oral administration to the baclofen treated groups was started. (±)-baclofen was dissolved in drinking water at a concentration of 1.1 mg/dl in the low concentration treated group and at a concentration of 2.7 mg/dl in the high concentration treated group. A food intake amount and a body weight were measured over time during the period of 5 week-administration of (±)-baclofen, blood was taken after the end of the 5-week administration, and the db/db mice were sacrificed by cervical luxation. Brains, epididymal white adipose tissues, subcutaneous white adipose tissues and brown adipose tissues were surgically removed. The brains and brown adipose tissues were frozen in dry ice and liquid nitrogen immediately after the removal and then preserved at −80° C. The epididymal white adipose tissues and subcutaneous white adipose tissues were measured in weights, and then fixed in 4% formaldehyde and preserved at 4° C.
5 week-old male C57BL/KsJ-db/db mice (db/db mice: body weight 19 to 25 g, Japan SLC, Inc.) were purchased and individually fed in tip cages. For the db/db mice, normal pellet diet (CE-2) was administered under free water intake and free food intake. A body weight and a food intake amount over 24 hours were measured everyday from the start of feeding. On day 3 after the start of feeding, blood was taken from an orbit after 6 hour-fasting and a blood glucose level and a blood insulin concentration were measured. […] After division into the groups, from day 5 after the start of feeding, R-baclofen and S-baclofen were dissolved in drinking water and 5 week-continuous oral administration was started. […] A food intake amount and a body weight were measured over time, and a rectal temperature was measured 5 weeks after the start of the administration. Blood was taken after the 5-week administration of baclofen, and the db/db mice were sacrificed by cervical luxation.
5 week-old male C57BL/KsJ-db/db mice (db/db mice: body weight 19 to 25 g, Japan SLC, Inc.) were purchased and individually fed in tip cages. Normal pellet diet (CE-2) was administered to the db/db mice under free water intake and free food intake. A body weight and a food intake amount over 24 hours were measured every day from the start of feeding. On day 3 after the start of feeding, blood was taken from an orbit after 6 hour-fasting, and a blood glucose level and a blood insulin concentration were measured. The db/db mice were divided into five groups (10 mice per each group) so that a body weight, a 24 hour-food intake amount, a blood glucose level, and a blood insulin concentration were equal, and defined to be a control group and baclofen treated groups. (±)-baclofen was dissolved in drinking water at respective concentrations of 4×10^−6 M, 10×10^−6 M, 40×10^−6 M, and 100×10^−6 M, and continuously orally administered to the baclofen treated groups for 5 weeks. A food intake amount, a body weight and a water-drinking amount were measured over time during the period of 5 week-administration of (±)-baclofen. […]

[2] = test system: db/db mice; test: Rectal temperature, oxygen consumption and motor activity, db/db mice; assay type: in vivo, mouse; settings: enantiomer 1.1 mg/dl in drinking water for 5 weeks, measured at 20 o'clock for 3 days
Procedure: 5 week-old male C57BL/KsJ-db/db mice (db/db mice: body weight 19 to 25 g, Japan SLC, Inc.) were purchased and individually fed in tip cages. For the db/db mice, normal pellet diet (CE-2) was administered under free water intake and free food intake. A body weight and a food intake amount over 24 hours were measured everyday from the start of feeding. On day 3 after the start of feeding, blood was taken from an orbit after 6 hour-fasting and a blood glucose level and a blood insulin concentration were measured. The db/db mice were divided into three groups (10 mice per each group) so that a body weight, a 24 hour-food intake amount, a blood glucose level, and a blood insulin concentration were equal, and defined to be a control group, an R-baclofen treated group, and an S-baclofen treated group. […] After division into the groups, from day 5 after the start of feeding, R-baclofen and S-baclofen were dissolved in drinking water and 5 week-continuous oral administration was started. Both of R-baclofen and S-baclofen were dissolved in drinking water at a concentration of 1.1 mg/dl used in the low concentration treated group in the experiment of baclofen racemic mixture administration. A food intake amount and a body weight were measured over time, and a rectal temperature was measured 5 weeks after the start of the administration. Blood was taken after the 5-week administration of baclofen, and the db/db mice were sacrificed by cervical luxation.
R-baclofen and S-baclofen were administered to db/db/mice and (±)-baclofen was administered to db/^+m mice respectively for 5 weeks, and rectal temperatures were then continuously measured for 3 days at 20 o'clock immediately before the dark period when feed intake was started in the mice. The method of measuring rectal temperatures was as follows. That is, the rectal temperatures were measured by using a digital thermistor (manufactured by NATSUME SEISAKUSHO CO., LTD.).
(±)-baclofen was orally administered to db/db mice and DIO mice for 5 weeks and rectal temperatures were measured 5 weeks after the start of the administration, and oxygen consumptions and motor activity were measured by using a small animal metabolism measuring system (model MK-5000: Muromachi Kikai Co., Ltd.).

Row | Structure (SMILES) | time after start of administration from which body weight increase suppression was significant [1] [weeks] | time after start of administration from which food intake suppression was significant [1] [weeks] | body weight increase [1] | food intake amount [1] | rectal temperature [2]
1 | Cl.NC[C@@H](CC(=O)O)c1ccc(Cl)cc1 [S-baclofen, S(−)-Baclofen hydrochloride] | 5 | 5 | significant suppression | significant suppression | significantly increased
2 | Cl.NC[C@H](CC(=O)O)c1ccc(Cl)cc1 [R-baclofen, R(+)-Baclofen hydrochloride] | 2 | 2 | significantly suppressed | significantly suppressed | significantly increased
